“And” between values parts separate entries of the source, which are not always exact repeats. Equal entries are not always repeated. “Also recorded” adds a separate entry of the source.
Assays:
SL1344 = test: Effect of 45-minute incubation with PNA on SL1344 viability; type: cell-based, Salmonella enterica serovar typhimurium; conditions: 10 μM, 45 minutes
Experimental: FIG. 13. Effect of 45-minute incubation with PNA treatment during infection. (A) Individual colonies of SL1344 were picked off of solid media and grown for 16 hours in luria broth supplemented with 30 μg/mL streptomycin, diluted 1:10, and regrown for 4 hours. After regrowth bacteria was diluted to a concentration equivalent to a […] multiplicity of infection of 200,000 cells/mL in 100 μL (conditions of HeLa cell infection after 24 hours growth). Cultures were suspended in phosphate buffered saline and treated with 10 μM of either α-lexA, α-rpsD, or plain phosphate buffered saline for 45 minutes before serial dilution, plated on solid media (40 μg/mL streptomycin), and incubated for 16 hours. Colony forming units were counted to enumerate percent infection with respect to no treatment. There is no significant difference (p>0.05) between α-lexA and α-rpsD at 45 minutes of treatment. […] Percent infection was then calculated in comparison to each replicates' no treatment. […]
Effect of PNA after 45 min of incubation during HeLa infection: SL1344 were cultured as described above and split 1:10 and regrown for 4 hours. […] Samples (10 μL) were taken at t=0 (before PNA addition) and t=45 min (after PNA treatment), and serially diluted, plated, and grown for 16 hours at 37° C. and CFU counted.

E. coli MG1655 = test: Growth curves and CFU of lab strain treated with PNA; type: cell-based, Escherichia coli; conditions: 10 μM
Experimental: FIG. 7. Dose response of various PNA. Optical density of a 1:10,000 dilution of MG6155 from overnight liquid culture, treated with various concentrations of antisense inhibitors was measured for 3 biological replicates with error bars as standard deviations. Normalized growth was measured as the optical density at 22 hours normalized to no treatment. An asterisk (*) indicates a significant difference (p<0.05) as compared to no treatment for each inhibitor.
FIG. 8. Antisense Inhibitors targeting novel pathways can inhibit growth of E. coli. z. (A) Growth curves of E. coli MG1655 from a 1:10,000 dilution from an overnight culture, normalized to time t=0 with 10 μM of respective antisense inhibitor. […] (B) Colony forming units per milliliter of MG1655 E. coli for respective treatment as a function of time. The CFU/mL at t=0 represents the starting culture after a 1:100,000 dilution from overnight culture. […] Significance is measured as p<0.05.
(§1) Bacterial Cell culture: The clinical isolates were obtained from the lab of Nancy Madinger at the University of Colorado Anschutz campus. Clinical isolates were grown in Cation Adjusted Mueller Hinton broth (CAMHB) (Becton, Dickinson and Company 212322) at 37° C. with 225 rpm shaking or on solid CAMHB with 1.5% agar at 37° C. Clinical isolates were maintained as freezer stocks in 90% CAMHB, 10% glycerol at −80° C. Freezer stocks were streaked out onto solid CAMHB and incubated for 16 h to produce single colonies prior to experiments. For each biological replicate, a single colony was picked from solid media and grown for 16 h in liquid CAMHB prior to experiments. Non-clinical isolates, such as E. coli MG1655 (ATCC700926) and Salmonella entorica serovar typhimurium SL1344, were cultured in liquid 2% lysogeny broth (LB) or on 2% LB with 1.5% agar for solid plates. S. typhimurium cultures were supplemented with 30 μg/mL streptomycin and SL1344 strains containing plasmids pFPV (SL1344-mCherry) or pRG1 modified with a lacIq promoter (SL1344-Holin) were supplemented with 100 μg/mL ampicillin. Freezer stocks were stored in 60% LB broth, 40% glycerol at −80° C. Freezer stocks were streaked out onto solid LB and incubated for 16 h to produce single colonies before experiments. For biological replicates, single colonies were started in liquid LB and grown for 16 hours prior to experiments. E. coli MG1655 PNA growth experiments were carried out in M9 media (1×M9 minimal media salts solution (MP Biomedicals), 2.0 mM MgSO4, and 0.1 mM CaCl2 in sterile water) with 0.4% glucose.
PNA growth assay: Biological replicates were diluted 1:10,000 into treatment condition in 384-well plates and measured for 24 h in a Tecan GENios at 562 nm with a bandwidth of 35 nm. Media absorbance blanks were subtracted from data prior to analysis. […]

[1] = tested on: 60 nucleotide single-stranded DNA fragments containing the complementation site; test: Electrophoretic mobility shift assay (EMSA); type: binding; conditions: PNA 1 μM, DNA fragments 500 nM; complementary vs nonsense DNA
Experimental: FIG. 5. PNA binding to off-target start codons. (A) The set of potential PNA candidates identified from the Keio collection were screened against the entire E. coli MG1655 genome to identify the distribution of off-target alignments when allowing for zero base mismatches in the alignment (left) and one base mismatch (right). In the 0-basepair mismatch analysis, all chosen PNAs that were tested had no other start codon alignments within the genome, whereas in the one base mismatch alignment, the number of start codon alignments distribute across zero to five alignments. (B) Electrophoretic mobility shift assay (EMSA) depicting 60 nucleotide single-stranded DNA fragments containing the complementation site for their corresponding PNA. Nonsense DNA was a random 60 nucleotide single-stranded DNA sequence that contained no complementation sites for PNA binding. […] Bands corresponding to PNA+complementary DNA are shifted above the unbound DNA (red triangles). Corresponding PNA+nonsense DNA bands are seen in lanes 3 and 5, with lane 3 having slight cross-over bands coming from lane 2. All lanes are from the same gel.
Gel Shift Mobility Assay: Synthetic DNA oligonucleotides that are 57-60 nucleotides in length were incubated with their respective PNA binding site at 37° C. overnight. The concentration of the DNA fragments was held at 500 nM, while the PNA was always in excess at 1 μM. […]

NDM-1 KPN = test: PNA growth assay (optical density) on clinical isolate; type: cell-based, Klebsiella pneumoniae
Experimental: as §1
(§2) PNA growth assay: Biological replicates were diluted 1:10,000 into treatment condition in 384-well plates and measured for 24 h in a Tecan GENios at 562 nm with a bandwidth of 35 nm. Media absorbance blanks were subtracted from data prior to analysis. Normalized optical density (OD) data is shown normalized to the time point where the “no treatment” growth curves reached saturation phase which varied across biological replicates.

MDR E. coli = test: as above; type: cell-based, Escherichia coli
Experimental: as §1, §2

[2] = 10 μM PNA, optical density vs no treatment at 16 hours

In the case of “α-lexA: 12-mer antisense PNA cGGAATGAAAGC (SEQ ID NO. 17) targeting lexA, conjugated to (KFF)3K cell penetrating peptide via AEEA-linker (antisense CGGAATGAAAGC; all peptide nucleic acid (PNA); (KFF)3K cell-penetrating peptide attached via AEEA linker)”, the “bacterial viability after co-incubation (in words)” value (SL1344) is reported as “not long enough for the PNA to decrease bacterial viability”, the “effect on growth (in words)” value (E. coli MG1655) is reported as “complete suppression of cell growth” and the “binding specificity by EMSA (in words)” value [1] is reported as “showed specificity to their targets; also recorded: show binding specificity to their target”.
For “α-rpsD: 12-mer antisense PNA AGAAAATGGCAA (SEQ ID NO. 19) targeting rpsD, conjugated to (KFF)3K cell penetrating peptide via AEEA-linker (all peptide nucleic acid (PNA); (KFF)3K cell-penetrating peptide attached via AEEA linker)”, the “bacterial viability after co-incubation (in words)” value (SL1344) was “not long enough for the PNA to decrease bacterial viability”, the “effect on growth (in words)” value (E. coli MG1655) was “effective in killing; also recorded: complete suppression of cell growth” and the “colony forming units per milliliter” value (E. coli MG1655; within 2 hours of treatment) was 0 CFU/mL. For the same substance, the “monotherapy effect (in words)” value (NDM-1 KPN; 10 μM) was “partial monotherapy effect”, the growth inhibition (NDM-1 KPN; [2]) was 65±7.1% and the “monotherapy effect (in words)” value (MDR E. coli) was “effective in killing”. The growth inhibition (MDR E. coli; [2]) was 98±0.7% and 98% and the “binding specificity by EMSA (in words)” value [1] was “showed specificity to their targets; also recorded: show binding specificity to their target”.

Source: US20210087565A1, “ANTISENSE ANTIBIOTICS AND BACTERIAL SECRETION BASED DELIVERY SYSTEM TO ELIMINATE DRUG-RESISTANT BACTERIA” (priority 2018, published 2021)
